Measurements reported in patent US20180243212A1, “TRANSDERMAL FORMULATIONS FOR DELIVERY OF DOXYCYCLINE, AND THEIR USE IN THE TREATMENT OF DOXYCYCLINE-RESPONSIVE DISEASES AND CONDITIONS” (DELIVRA, INC., priority 2015, published 2018).

Experiments:
[1] = Quantification of doxycycline in formulations 1-3 by LC-MS/MS (stability); type: physicochemical; conditions: over the time period studied (three months) under the storage conditions 5-25° C.
Protocol: 2.0-5.0 mg of doxycycline hyclate, usp (Medisca, CAS 24390-14-5, code 0434-04, lot 59177/D) was weighed into a scintillation vial and the mass was recorded. The recorded mass was then used to calculate the volume of solvent needed to generate a final concentration of 1 mg/mL and that amount of 60:28:12 H2O:CH3CN:MeOH was accurately added to the vial using a pipette. The solution was vortexed for 30 seconds or until the doxycycline hyclate was completely dissolved.
A 50 μg/mL solution of doxycycline hyclate was prepared by adding 50 μL of 1 mg/mL stock solution to 950 μL of methanol/water (50:50) and the resulting solution was vortexed for 10 seconds. […]
5-10 mgs of exemplary formulation 3 to be analyzed was weighed into a scintillation vial in duplicate. The mass was recorded and used to calculate the amount of methanol/water (50:50) to add to make up to 1 mg/mL and this was added. […]
Doxycycline was extracted in methanol:water from cream formulations by sonication, diluted and then quantified using liquid chromatography-triple quadruple mass spectrometry (LC-MS/MS). A calibration curve calculated by the peak area ratio of concentration of an analytical standard of doxycycline to an internal standard was used to calculate the concentrations of unknowns and establish linearity and LLOQ. […]

[2] = compounded from commercial tablets in the vehicles; Papich et al. (2013); cited from earlier work

- degradation of the doxycycline [1]: < 10%
Substance: Doxycycline
- time over which the concentration of DOX can be assured [2]: ≤ 7 days
